Consider one compound from patent US10023614B2, “Oral peptide inhibitors of interleukin-23 receptor and their use to treat inflammatory bowel diseases” (Protagonist Therapeutics, Inc., priority 2014, dated 2018).

Molecules are shown by their SMILES.

The test system of the assay is Sprague Dawley rats, DSS-induced colitis. As to the kind of experiment: Rat colitis model: 9 days of 3% DSS-containing drinking water. Type of assay: in vivo. To be noted: 100 mg/kg PO, QD; compared to DSS alone, from Day 5.

Experimental: In this model, colitis was induced in SD rats by 9 days of ad lib exposure to drinking water containing 3% DSS. The disease activity index (DAI) score and ratio of colon weight:colon length were compared between three study groups (n=6 rats/group): vehicle, 3% DSS, and 3% DSS with positive control (sulfasalazine administered at 100 mg/kg PO, QD).
Acute colitis was induced by feeding female Sprague Dawley rats with 3% (wt/vol) DSS dissolved in drinking water. […] A neutralizing anti-IL-23p19 antibody was used as a comparator, and was administered intraperitoneally at 4 mg/kg on the same day and fifth day after starting DSS. To quantify colitis with clinical activity, disease activity index (DAI) was determined daily for each animal as an average of three parameters: body weight change (scale 0-3), stool consistency (scale 0-3) and hemoccult blood (scale 0-3), as shown in Table 15. At necropsy, the entire colon was removed from the cecum to the rectum. The colon was measured for length, flushed with PBS to remove feces, weighed, and opened longitudinally to determine macroscopic score.
Statistical analysis for significance was compared to the vehicle treated group and was determined using Student's T-test (GraphPad Prism). Differences were noted as significant *p<0.05, **p<0.01, ***p<0.001, ****p<0.0001.

In the case of `O=C(O)c1cc(/N=N/c2ccc(S(=O)(=O)Nc3ccccn3)cc2)ccc1O` [sulfasalazine], the “disease activity index (DAI) score” value is listed as “attenuated the disease score”.
